Source: patent publication US20040054130A1, “Insulin potentiating peptides” (priority 2000, published 2004)
Ends that are not written are not given here.

What was measured:
normal male Wistar rats = assay: Intravenous insulin tolerance test (IVITT); type: in vivo, rat; conditions: 5 μmol/kg i.v.; for Reduction in Blood Glucose: 0.1 U insulin/kg
Experimental: IVITTs (0.1 U insulin/kg body weight) were performed on overnight-fasted Wistar male rats as previously described (Lim et al, 1992). Blood samples were taken for glucose estimation at 15, 30, 45, 60 min after the commencement of the tests. Six animals in each group were used.
IVITTs were performed on normal male Wistar rats after a single intravenous (i.v.) injection of the hGH peptide analogues at a dose of 5 μmol/kg body weight. The insulin-potentiating effects of peptides 6, 7, 8 and 10 on decreasing blood glucose levels of treated animals became significant since 30 min after the commencement of the test. Bioactivity was retained when the Arg^8 or Phe^10 residue of Asu^11-hGH(6-13) peptide was substituted with Lys or Tyr respectively (1.92±0.17 or 1.62±0.18 vs. 1.65±0.12 mmol/L at 45 min), as shown in Table 3. However, no insulin-potentiating effect was observed when either Arg^8 or Phe^10 was substituted by Gly (0.92±0.08 or 1.08±0.08 mmol/L respectively vs. 1.00±0.10 mmol/L of control at 45 min). Asu^11-hGH(8-13) also elicited this insulin-potentiating effect, but with lower potency.

[1] = biological target: insulin receptor tyrosine kinase (Homo sapiens, UniProt P06213); conditions: cited from earlier work
[2] = system: insulin-resistant Zucker fatty (fa/fa) rats; conditions: glucose clamp technique; cited from earlier work

With “Leu-Ser-Arg-Leu-Phe-Asu-Asn-Ala (LSRLFDNA-NH2; not fully specified; printed as Leu-Ser-Arg-Leu-Phe-Asu-Asn-Ala) [Peptide 7]” as the substance, how does the “insulin-potentiating effect on decreasing blood glucose in IVITT (in words)” value (normal male Wistar rats; from 30 min after commencement) read?
Its value is “significant”.

And the “Reduction in Blood Glucose” value (normal male Wistar rats; 15 min)?
Its value is 1.08 ± 0.09 mmol/L.

And the “Reduction in Blood Glucose” value (normal male Wistar rats; 30 min)?
Its value is 1.38 ± 0.13 mmol/L.

And the “Reduction in Blood Glucose” value (normal male Wistar rats; 45 min)?
Its value is 1.65 ± 0.12 mmol/L.

And the “Reduction in Blood Glucose” value (normal male Wistar rats; 45 min, listed as Asu^11-hGH(6-13))?
Its value is 1.65 ± 0.12 mmol/L.

And the “Reduction in Blood Glucose” value (normal male Wistar rats; 60 min)?
The value was 1.77 ± 0.19 mmol/L.

What about the “effect on insulin receptor tyrosine kinase activity” value [1] of the same substance?
The value was “stimulating”.

What about the glucose tolerance [2] of the same substance?
The glucose tolerance was “improve glucose tolerance”.
